Results as given in patent US20230023559A1, “ARYLMETHYLENE HETEROCYCLIC COMPOUNDS AS KV1.3 POTASSIUM SHAKER CHANNEL BLOCKERS” (D. E. Shaw Research, LLC, priority 2019, published 2023).

Experiments:
[1] = target: T1, Kv1.3 potassium channel (Homo sapiens, UniProt P22001); assay: Kv1.3 potassium channel blocker activity, automated whole-cell patch clamp (Patchliner); assay type: cell-based; details: CHO-K1 cells stably expressing Kv1.3; whole cell current inhibition; read-out: Kv1.3_IC50
T1 construct: expressed in transfected cells
T1 sequence (P22001 whole entry): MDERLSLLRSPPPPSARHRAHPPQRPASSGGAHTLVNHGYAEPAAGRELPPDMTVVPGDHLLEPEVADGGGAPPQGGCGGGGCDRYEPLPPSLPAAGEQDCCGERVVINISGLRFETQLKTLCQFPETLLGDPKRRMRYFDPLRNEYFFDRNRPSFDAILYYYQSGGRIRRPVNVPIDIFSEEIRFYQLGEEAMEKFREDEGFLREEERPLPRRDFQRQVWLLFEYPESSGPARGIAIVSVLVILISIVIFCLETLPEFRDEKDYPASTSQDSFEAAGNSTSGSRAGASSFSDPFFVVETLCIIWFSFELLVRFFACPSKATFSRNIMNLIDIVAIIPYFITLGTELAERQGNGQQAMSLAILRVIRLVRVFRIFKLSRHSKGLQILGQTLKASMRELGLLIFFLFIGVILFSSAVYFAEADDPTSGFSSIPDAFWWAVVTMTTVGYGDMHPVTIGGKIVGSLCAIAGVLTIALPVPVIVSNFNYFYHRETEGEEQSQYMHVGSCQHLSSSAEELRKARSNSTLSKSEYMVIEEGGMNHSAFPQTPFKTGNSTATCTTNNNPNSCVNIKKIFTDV
In short: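 CHO-K1 cells stably expressing Kv1.3, automated whole-cell patch clamp. Currents evoked by 100 ms steps from −90 mV holding to +40 mV at 0.1 Hz, sampled at 10 kHz unfiltered, P/4 leak subtraction; peak current inhibition measured, compound incubation ≤10 s between pulse trains.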

[2] = target: hERG channel (Homo sapiens, UniProt Q12809); assay: hERG electrophysiology, automated whole-cell patch clamp (Patchliner)
hERG channel, sequence (Q12809 whole entry): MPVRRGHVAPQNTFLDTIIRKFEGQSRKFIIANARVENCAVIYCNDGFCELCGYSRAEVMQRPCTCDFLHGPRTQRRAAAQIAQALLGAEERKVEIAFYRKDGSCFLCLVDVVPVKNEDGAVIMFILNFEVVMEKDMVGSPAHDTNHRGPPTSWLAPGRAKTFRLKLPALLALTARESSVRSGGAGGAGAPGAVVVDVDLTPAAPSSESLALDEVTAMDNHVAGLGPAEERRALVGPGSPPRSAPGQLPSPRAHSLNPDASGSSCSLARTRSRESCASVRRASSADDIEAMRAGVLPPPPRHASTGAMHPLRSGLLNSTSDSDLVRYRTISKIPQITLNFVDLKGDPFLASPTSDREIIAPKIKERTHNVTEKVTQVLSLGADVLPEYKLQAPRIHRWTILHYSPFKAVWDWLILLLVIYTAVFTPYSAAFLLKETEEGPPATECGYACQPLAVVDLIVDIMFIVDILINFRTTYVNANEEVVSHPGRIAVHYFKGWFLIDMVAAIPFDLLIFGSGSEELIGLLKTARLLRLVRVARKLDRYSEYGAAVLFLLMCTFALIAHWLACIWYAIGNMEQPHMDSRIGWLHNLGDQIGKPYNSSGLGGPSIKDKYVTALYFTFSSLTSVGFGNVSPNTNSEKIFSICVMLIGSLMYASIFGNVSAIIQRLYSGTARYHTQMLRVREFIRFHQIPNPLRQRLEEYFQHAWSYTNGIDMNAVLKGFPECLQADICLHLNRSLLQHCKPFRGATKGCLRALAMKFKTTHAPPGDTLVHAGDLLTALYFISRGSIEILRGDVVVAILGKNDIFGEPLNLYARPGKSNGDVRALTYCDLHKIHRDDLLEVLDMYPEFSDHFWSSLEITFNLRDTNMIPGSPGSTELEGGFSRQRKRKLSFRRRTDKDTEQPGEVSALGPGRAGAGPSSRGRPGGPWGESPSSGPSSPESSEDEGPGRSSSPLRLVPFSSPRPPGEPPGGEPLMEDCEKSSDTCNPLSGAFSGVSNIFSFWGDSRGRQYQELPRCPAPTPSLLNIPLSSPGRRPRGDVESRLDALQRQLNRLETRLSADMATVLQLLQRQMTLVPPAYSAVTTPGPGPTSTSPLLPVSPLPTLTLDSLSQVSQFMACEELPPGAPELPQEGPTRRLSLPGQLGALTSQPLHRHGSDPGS
Experimental: CHO-K1 cells stably expressing hERG were grown in Ham's F-12 Medium with Glutamine containing 10% heat-inactivated FBS, 1% Penicillin/Streptomycin, Hygromycin (100 μg/ml) and G418 (100 μg/ml). Cells were grown in culture flasks at 37° C. in a 5% CO2-humidified incubator.
The cells were bathed in an extracellular solution containing 140 mM NaCl, 4 mM KCl, 2 mM CaCl2), 1 mM MgCl2, 5 mM Glucose, 10 mM HEPES; pH adjusted to 7.4 with NaOH; 295-305 mOsm. The internal solution contained 50 mM KCl, 10 mM NaCl, 60 mM KF, 20 mM EGTA, 10 mM HEPES; pH adjusted to 7.2 with KOH; 285 mOsm. All compounds were dissolved in DMSO at 30 mM. Compound stock solutions were freshly diluted with external solution to concentrations of 30 nM, 100 nM, 300 nM, 1 μM, 3 μM, 10 μM, 30 μM and 100 μM. The highest content of DMSO (0.3%) was present in 100 μM.
The voltage protocol (see Table B) was designed to simulate voltage changes during a cardiac action potential with a 300 ms depolarization to +20 mV (analogous to the plateau phase of the cardiac action potential), a repolarization for 300 ms to −50 mV (inducing a tail current) and a final step to the holding potential of −80 mV. The pulse frequency was 0.3 Hz. Control (compound-free) and compound pulse trains for each compound concentration applied contained 70 pulses.
Whole cell current recordings and compound application were enabled by means of an automated patch clamp platform Patchliner (Nanion). EPC 10 patch clamp amplifier (HEKA) along with Patchmaster software (HEKA Elektronik Dr. Schulze GmbH) was used for data acquisition. Data were sampled at 10 kHz without filtering. Increasing compound concentrations were applied consecutively to the same cell without washouts in between.
AUC and PEAK values were obtained with Patchmaster (HEKA Elektronik Dr. Schulze GmbH). To determine IC50 the last single pulse in the pulse train corresponding to a given compound concentration was used. Obtained AUC and PEAK values in the presence of compound were normalized to control values in the absence of compound. Using Origin (OridinLab), IC50 was derived from data fit to Hill equation: Icompound/Icontrol=(100−A)/(1+([compound]/IC50)nH)+A, where IC50 is the concentration at which current inhibition is half-maximal, [compound] is the applied compound concentration, A is the fraction of current that is not blocked and nH is the Hill coefficient.

IC50 [1] [nM] | SMILES | IC50 [2] [µM]
< 500 | N[C@@H](c1c(O)cc(Cl)c(Cl)c1F)C1CCN(C(=O)c2ccc(=O)[nH]c2)CC1 [Compound 257, 5-[4-[(R)-amino(3,4-dichloro-2-fluoro-6-hydroxyphenyl)methyl]piperidine-1-carbonyl]-1H-pyridin-2-one Trifluoroacetic Acid] | > 30
< 500 | N[C@@H](c1cc(Cl)c(Cl)cc1O)C1CCN(C(=O)[C@@H]2OCC[C@@H]2O)CC1 [Compound 260, (2R,3S)-2-[4-[(R)-amino(4,5-dichloro-2-hydroxyphenyl)methyl]piperidine-1-carbonyl]oxolan-3-ol Trifluoroacetic Acid] | > 30
< 500 | Cc1cc(O)c([C@H](N)C2CCN(C(=O)c3c[nH]c(=O)c(C)c3)CC2)cc1Cl [Compound 262, 5-[4-[(R)-amino (5-chloro-2-hydroxy-4-methylphenyl)methyl]piperidine-1-carbonyl]-3-methyl-1H-pyridin-2-one trifluoroacetic acid] | > 30
< 10000 | Cc1cc(O)c([C@H](N)C2CCN(C(=O)c3c[nH]c(=O)c(Cl)c3)CC2)c(F)c1Cl [Compound 264, 5-[4-[(R)-amino(3-chloro-2-fluoro-6-hydroxy-4-methylphenyl)methyl]piperidine-1-carbonyl]-3-chloro-1H-pyridin-2-one Trifluoroacetic Acid] | > 30
< 500 | Cc1cc(O)c([C@H](N)C2CCN(C(=O)c3ccc(=O)[nH]c3)CC2)c(F)c1Cl [Compound 272, 5-[4-[(R)-amino(3-chloro-2-fluoro-6-hydroxy-4-methylphenyl)methyl]piperidine-1-carbonyl]-1H-pyridin-2-one Trifluoroacetic Acid] | > 30
< 500 | N[C@@H](c1cc(Cl)c(Cl)cc1O)C1CCN(C(=O)C2CNC(=O)NC2)CC1 [Compound 275, 5-[4-[(R)-amino(4,5-dichloro-2-hydroxyphenyl)methyl]piperidine-1-carbonyl]-1,3-diazinan-2-one Trifluoroacetic Acid] | > 30
< 500 | N[C@@H](c1cc(Cl)c(Cl)cc1O)C1CCN(C(=O)c2cnc(=O)[nH]c2)CC1 [Compound 277, 5-[4-[(R)-amino(4,5-dichloro-2-hydroxyphenyl)methyl]piperidine-1-carbonyl]-1H-pyrimidin-2-one trifluoroacetic acid] | > 30
< 500 | N[C@@H](c1cc(Cl)c(Cl)cc1O)C1CCN(C(=O)C2CNC(=O)OC2)CC1 (stereo partly drawn) [Compound 279, 5-[4-[(R)-amino(4,5-dichloro-2-hydroxyphenyl)methyl]piperidine-1-carbonyl]-1,3-oxazinan-2-one trifluoroacetic acid] | > 30
< 500 | Cc1cc(O)c([C@H](N)C2CCN(C(=O)c3c[nH]c(=O)c(C#N)c3)CC2)cc1Cl [Compound 280, (R)-5-(4-(amino (5-chloro-2-hydroxy-4-methylphenyl)methyl)piperidine-1-carbonyl)-2-oxo-1,2-dihydro-pyridine-3-carbonitrile] | > 30
< 10000 | Cc1cc(O)c([C@H](N)C2CCN(C(=O)[C@H](O)CO)CC2)cc1F [Compound 283, (2R)-1-[4-[(R)-amino(5-fluoro-2-hydroxy-4-methylphenyl)methyl]piperidin-1-yl]-2,3-dihydroxypropan-1-one] | > 30
< 10000 | N[C@@H](c1cc(Cl)c(C(F)(F)F)cc1O)C1CCN(C(=O)[C@H](O)CO)CC1 [Compound 284, (2R)-1-[4-[(R)-amino[5-chloro-2-hydroxy-4-(trifluoromethyl)phenyl]methyl]piperidin-1-yl]-2,3-dihydroxypropan-1-one] | > 30
< 500 | N[C@@H](c1cc(Cl)c(C2CC2)cc1O)C1CCN(C(=O)[C@H](O)CO)CC1 [Compound 289, (2R)-1-[4-[(R)-amino(5-chloro-4-cyclopropyl-2-hydroxyphenyl)methyl]piperidin-1-yl]-2,3-dihydroxypropan-1-one] | > 30

Continued, molecule first:

SMILES | IC50 [1] [nM] | IC50 [2] [µM]
N[C@@H](c1cc(Cl)c(Cl)cc1O)C1CCN(C(=O)C2CNC(=O)CO2)CC1 (stereo partly drawn) [Compound 231, 6-[4-[(R)-amino(4,5-dichloro-2-hydroxyphenyl)methyl]piperidine-1-carbonyl]morpholin-3-one] | < 500 | > 30
Cn1cc(C(=O)N2CCC([C@@H](N)c3cc(Cl)c(Cl)cc3O)CC2)ccc1=O [Compound 232, 5-[4-[(R)-amino(4,5-dichloro-2-hydroxyphenyl)methyl]piperidine-1-carbonyl]-1-methylpyridin-2-one] | < 500 | > 30
Cc1cc(O)c([C@H](N)C2CCN(C(=O)CO)CC2)cc1Cl [Compound 233, (R)-1-(4-(amino(5-chloro-2-hydroxy-4-methylphenyl)methyl)piperidin-1-yl)-2-hydroxyethan-1-one trifluoroacetic acid] | < 500 | > 30
Cc1cc(O)c([C@H](N)C2CCN(C(=O)C3CNC3)CC2)cc1Cl [Compound 235, 2-[(R)-amino[1-(azetidine-3-carbonyl)piperidin-4-yl]methyl]-4-chloro-5-methylphenol trifluoroacetic acid] | < 500 | > 30
Cc1cc(O)c([C@H](N)C2CCN(S(=O)(=O)C3CCNC3)CC2)cc1Cl (stereo partly drawn) [Compound 236, 2-[(R)-amino[1-(pyrrolidine-3-sulfonyl)piperidin-4-yl]methyl]-4-chloro-5-methylphenol Trifluoroacetic Acid] | < 500 | > 30
Cc1cc(O)c([C@H](N)C2CCN(C(=O)[C@@H]3CCNC3)CC2)cc1Cl [Compound 237, (4-((R)-amino(5-chloro-2-hydroxy-4-methylphenyl)methyl)piperidin-1-yl)((R)-pyrrolidin-3-yl)methanone trifluoroacetic acid] | < 500 | > 30
Cc1cc(O)c([C@H](N)C2CCN(C(=O)c3ccc4nccn4c3)CC2)cc1Cl [Compound 238, 2-[(R)-amino(1-[imidazo[1,2-a]pyridine-6-carbonyl]piperidin-4-yl)methyl]-4-chloro-5-methylphenol trifluoroacetic acid] | < 500 | < 30
Cc1cc(O)c([C@H](N)C2CCN(C(=O)c3ccc(=O)n(C)c3)CC2)cc1Cl [Compound 239, 5-[4-[(R)-amino (5-chloro-2-hydroxy-4-methylphenyl)methyl]piperidine-1-carbonyl]-1-methylpyridin-2(1H)-one trifluoroacetic acid] | < 500 | > 30
Cc1cc(O)c([C@H](N)C2CCN(C(=O)c3cnc4nccn4c3)CC2)cc1Cl [Compound 240, 2-[(R)-amino(1-[imidazo[1,2-a]pyrimidine-6-carbonyl]piperidin-4-yl)methyl]-4-chloro-5-methylphenol Trifluoroacetic Acid] | < 500 | > 30
Cc1cc(O)c([C@H](N)C2CCN(C(=O)c3c[nH]c(=O)c(Cl)c3)CC2)cc1Cl [Compound 241, 5-[4-[(R)-amino (5-chloro-2-hydroxy-4-methylphenyl)methyl]piperidine-1-carbonyl]-3-chloro-1H-pyridin-2-one trifluoro-acetic acid] | < 500 | > 30
Cc1cc(O)c([C@H](N)C2CCN(C(=O)c3ccc4nncn4c3)CC2)cc1Cl [Compound 242, (R)-[1,2,4]triazolo[4,3-a]pyridin-6-yl(4-(amino(5-chloro-2-hydroxy-4-methylphenyl)methyl)piperidin-1-yl)methanone trifluoroacetic acid] | < 500 | > 30
COc1ccc(C(=O)N2CCC([C@@H](N)c3cc(Cl)c(C)cc3O)CC2)cn1 [Compound 243, 2-[(R)-amino[1-(6-methoxypyridine-3-carbonyl)piperidin-4-yl]methyl]-4-chloro-5-methylphenol trifluoroacetic acid] | < 500 | < 30
Cc1cc(O)c([C@H](N)C2CCN(C(=O)[C@H](O)CO)CC2)c(F)c1Cl [Compound 244, (2R)-1-[4-[(R)-amino(3-chloro-2-fluoro-6-hydroxy-4-methylphenyl)methyl]piperidin-1-yl]-2,3-dihydroxypropan-1-one] | < 500 | > 30
Cc1cc(O)c([C@H](N)C2CCN(C(=O)c3c[nH]c(=O)cc3Cl)CC2)cc1Cl [Compound 245, 5-[4-[(R)-amino (5-chloro-2-hydroxy-4-methylphenyl)methyl]piperidine-1-carbonyl]-4-chloro-1H-pyridin-2-one trifluoroacetic acid] | < 500 | > 30
Cc1cc(O)c([C@H](N)C2CCN(C(=O)C3CCS(=O)(=O)CC3)CC2)cc1Cl [Compound 247, (R)-(4-(amino(5-chloro-2-hydroxy-4-methylphenyl)methyl)piperidin-1-yl)(1,1-dioxidotetrahydro-2H-thiopyran-4-yl)methanone trifluoroacetic acid] | < 500 | > 30
Cc1cc(O)c([C@H](N)C2CCN(C(=O)c3ccc(CO)nc3)CC2)cc1Cl [Compound 248, 2-[(R)-amino([1-[6-(hydroxymethyl)pyridine-3-carbonyl]piperidin-4-yl])methyl]-4-chloro-5-methylphenol] | < 500 | > 30
Cc1cc(O)c([C@H](N)C2CCN(C(=O)c3ccc(=O)n(CCO)c3)CC2)cc1Cl [Compound 249, 5-[4-[(R)-amino (5-chloro-2-hydroxy-4-methylphenyl)methyl]piperidine-1-carbonyl]-1-(2-hydroxyethyl) pyridin-2-one trifluoroacetic acid] | < 500 | > 30
